The text below walks through data of patent publication US20220160762A1, “ENGINEERED IMMUNE CELLS” (NATIONAL UNIVERSITY OF SINGAPORE, priority 2019, published 2022).

pIC50: −log10 of the molar value.

In one test the test system is TCR-Jurkat. Put plainly: T cell stimulation assay with kinase inhibitor, IL-2 ELISA readout. Conditions: Homo sapiens, TCR-Jurkat stimulated with CHO-L2, 18 hrs, read-out: IC50 of inhibitor on IL-2 production. The format is cell-based. How it is done:
(§1) Artificial antigen presenting CHO cells (APC-CHO) were seeded onto a 96 well flat plate at 2-3×10^4 per well one day before. For APC-CHO requiring peptide pulsing, peptide was added at 4 uM for 3 hrs, and then washed away before CAR-T or TCR-T cells were added. Each CAR-T cell or TCR T cell sample was counted and suspended at a concentration of 10^6 per ml in culturing RPMI medium. 200 ul per well of suspended cell solution was then added into APC-CHO pre-seeded plate. For inhibitor experiments, inhibitor was added accordingly into the cell mixture. Technical triplicates were performed for all experiments. The cells were incubated at 37° C., 5% CO2 for 18 hrs. After incubation, supernatant was collected for human IL-2 ELISA assay, which was performed according to the manufacturer's protocol (Invitrogen). The T cell pellets were resuspended for surface staining or used for another round of stimulation by repeating the method described above.

Another test concerns CAR-Jurkat. Described as above. The format is cell-based, human. Conditions: for pIC50: Homo sapiens, T-cell, CAR-Jurkat stimulated with CHO-L2, 18 hrs, read-out: IC50 of inhibitor on IL-2 production. How it is done: as §1
A further test relates to CAR-Jcam. Put plainly: T cell stimulation assay with SFK inhibitor, IL-2 ELISA readout. It counts as cell-based, human. The conditions noted are these: CAR-Jcam (LCK-deficient). The procedure: as §1

Take `COc1cc(-c2nn([C@H]3CC[C@H](N4CCN(C(C)=O)CC4)CC3)c3ncnc(N)c23)ccc1NC(=O)c1cc2ccccc2n1C` [A770041]: the pIC50 in the test on TCR-Jurkat is 8.18; in the test with CAR-Jurkat, 7.33.

As to `CN(C)S(=O)(=O)c1ccc2c(c1)/C(=C/c1cc3c([nH]1)CCCC3)C(=O)N2` [SU6656], the pIC50 in the test with TCR-Jurkat was 5.25; with CAR-Jurkat it was 5.42.

Turning to `CC(C)(C)n1nc(-c2ccc(Cl)cc2)c2c(N)ncnc21` [PP2], the “IL-2 production after inhibitor was added” value in the test on CAR-Jurkat (CAR-Jurkat) and in the test with CAR-Jcam was “entirely quenched” in each case.
